Measured values taken from the NIST ThermoML archive (doi:10.1016/j.jct.2016.10.034).

Test: xn = mol fraction of the nth substance listed
Conditions: 100 kPa, Liquid; for viscosity: Falling or rolling sphere viscometry; for mass density: Vibrating tube method

CC(=O)[O-].CC[N+]1(C)CCCC1 [1-ethyl-1-methylpyrrolidinium acetate] + O
Conditions | mass density [kg/m3] | viscosity [mPa·s]
298.15 K, x1 = 0.1008 | 1046.6 | 6.95
298.15 K, x1 = 0.2083 | 1066.7 | 16.9
298.15 K, x1 = 0.3171 | 1070.7 | 29
298.15 K, x1 = 0.4126 | 1070.8 | 41.1
298.15 K, x1 = 0.481 | 1070.2 | 50.9
298.15 K, x1 = 0.5857 | 1069.2 | 69.3
298.15 K, x1 = 0.6728 | 1068.1 | 88.3
298.15 K, x1 = 0.766 | 1066.9 | 116
298.15 K, x1 = 0.8963 | 1065.4 | 173
303.15 K, x1 = 0.1008 | 1043.6 | 5.96
303.15 K, x1 = 0.2083 | 1063.6 | 14.2
303.15 K, x1 = 0.3171 | 1067.6 | 24.2
303.15 K, x1 = 0.4126 | 1067.8 | 34.5
303.15 K, x1 = 0.481 | 1067.2 | 42.8
303.15 K, x1 = 0.5857 | 1066.3 | 57.2
303.15 K, x1 = 0.6728 | 1065.3 | 71.4
303.15 K, x1 = 0.766 | 1064 | 91.3
303.15 K, x1 = 0.8963 | 1062.5 | 134
308.15 K, x1 = 0.1008 | 1040.7 | 5.32
308.15 K, x1 = 0.2083 | 1060.3 | 11.9
308.15 K, x1 = 0.3171 | 1064.5 | 19.7
308.15 K, x1 = 0.4126 | 1064.8 | 28
308.15 K, x1 = 0.481 | 1064.2 | 35.1
308.15 K, x1 = 0.5857 | 1063.1 | 46.7
308.15 K, x1 = 0.6728 | 1062.2 | 57.6
308.15 K, x1 = 0.766 | 1060.7 | 74.2
308.15 K, x1 = 0.8963 | 1059.4 | 107
313.15 K, x1 = 0.1008 | 1037.7 | 4.77
313.15 K, x1 = 0.2083 | 1057.1 | 10.6
313.15 K, x1 = 0.3171 | 1061.4 | 16.9
313.15 K, x1 = 0.4126 | 1061.8 | 23.5
313.15 K, x1 = 0.481 | 1061.3 | 28.9
313.15 K, x1 = 0.5857 | 1060.4 | 38.7
313.15 K, x1 = 0.6728 | 1059.4 | 48.5
313.15 K, x1 = 0.766 | 1057.9 | 62.8
313.15 K, x1 = 0.8963 | 1056.6 | 88.5
318.15 K, x1 = 0.1008 | 1034.6 | 4.3
318.15 K, x1 = 0.2083 | 1053.8 | 9.09
318.15 K, x1 = 0.3171 | 1058.2 | 14
318.15 K, x1 = 0.4126 | 1058.7 | 19.7
318.15 K, x1 = 0.481 | 1058.3 | 23.6
318.15 K, x1 = 0.5857 | 1057.5 | 30.3
318.15 K, x1 = 0.6728 | 1056.6 | 38.4
318.15 K, x1 = 0.766 | 1055 | 51.4
318.15 K, x1 = 0.8963 | 1053.7 | 70.8
323.15 K, x1 = 0.1008 | 1031.5 | 3.87
323.15 K, x1 = 0.2083 | 1050.5 | 7.91
323.15 K, x1 = 0.3171 | 1055.1 | 11.6
323.15 K, x1 = 0.4126 | 1055.7 | 16
323.15 K, x1 = 0.481 | 1055.3 | 19.8
323.15 K, x1 = 0.5857 | 1054.5 | 26.2
323.15 K, x1 = 0.6728 | 1053.6 | 32.7
323.15 K, x1 = 0.766 | 1052.2 | 42.5
323.15 K, x1 = 0.8963 | 1050.9 | 58
328.15 K, x1 = 0.1008 | 1028.3 | 3.523
328.15 K, x1 = 0.2083 | 1047.2 | 6.81
328.15 K, x1 = 0.3171 | 1051.9 | 10
328.15 K, x1 = 0.4126 | 1052.6 | 13.5
328.15 K, x1 = 0.481 | 1052.3 | 15.8
328.15 K, x1 = 0.5857 | 1051.6 | 21.2
328.15 K, x1 = 0.6728 | 1050.7 | 28
328.15 K, x1 = 0.766 | 1049.3 | 35.2
328.15 K, x1 = 0.8963 | 1048 | 48
333.15 K, x1 = 0.1008 | 1025.1 | 3.21
333.15 K, x1 = 0.2083 | 1043.8 | 6.14
333.15 K, x1 = 0.3171 | 1048.7 | 8.67
333.15 K, x1 = 0.4126 | 1049.5 | 11.5
333.15 K, x1 = 0.481 | 1049.3 | 13.5
333.15 K, x1 = 0.5857 | 1048.5 | 18.1
333.15 K, x1 = 0.6728 | 1047.7 | 23.2
333.15 K, x1 = 0.766 | 1046.2 | 29.1
333.15 K, x1 = 0.8963 | 1045 | 39.5
338.15 K, x1 = 0.1008 | 1021.8 | 2.94
338.15 K, x1 = 0.2083 | 1040.5 | 5.49
338.15 K, x1 = 0.3171 | 1045.5 | 7.52
338.15 K, x1 = 0.4126 | 1046.4 | 9.88
338.15 K, x1 = 0.481 | 1046.2 | 11.6
338.15 K, x1 = 0.5857 | 1045.6 | 15.4
338.15 K, x1 = 0.6728 | 1044.9 | 19.8
338.15 K, x1 = 0.766 | 1043.5 | 24.6
338.15 K, x1 = 0.8963 | 1042.3 | 32.6
343.15 K, x1 = 0.1008 | 1018.5 | 2.65
343.15 K, x1 = 0.2083 | 1037.1 | 4.78
343.15 K, x1 = 0.3171 | 1042.2 | 6.72
343.15 K, x1 = 0.4126 | 1043.3 | 8.58
343.15 K, x1 = 0.481 | 1043.2 | 10.1
343.15 K, x1 = 0.5857 | 1042.6 | 13.1
343.15 K, x1 = 0.6728 | 1041.9 | 16.9
343.15 K, x1 = 0.766 | 1040.5 | 20.9
343.15 K, x1 = 0.8963 | 1039.3 | 27.2
348.15 K, x1 = 0.1008 | 1015.2 | 2.46
348.15 K, x1 = 0.2083 | 1033.6 | 4.38
348.15 K, x1 = 0.3171 | 1039 | 5.79
348.15 K, x1 = 0.4126 | 1040.1 | 7.52
348.15 K, x1 = 0.481 | 1040.1 | 8.82
348.15 K, x1 = 0.5857 | 1039.7 | 11.4
348.15 K, x1 = 0.6728 | 1039 | 14.6
348.15 K, x1 = 0.766 | 1037.6 | 17.3
348.15 K, x1 = 0.8963 | 1036.7 | 22.4
